{"source": "patent US20030148954A1", "about": "“Agents and methods for modulating activator protein-1-mediated cellular processes” (Wisconsin Alumni Research Foundation, priority 2001, published 2003)", "key": {"AP-1 [1]": {"tested_on": "AP-1", "test": "EMSA of AP-1 DNA binding activity in nuclear extracts", "parameters": "species or system human", "settings": "K562 cells treated with TPA", "method": "K562-Babe and K562-NIC-1 cells were harvested by centrifugation for 10 min at 150×g. Cells were washed once with ice-cold PBS and resuspended in 1.5 volumes of nuclei lysis buffer (10 mM Tris-HCl, pH 7.5, 10 mM NaCl, 3 mM MgCl2, and 0.2% Nonidet P-40) on ice for 3 min. Nuclei were collected by centrifugation for 5 min at 600×g. Nuclei were washed by gentle resuspension in 1.5 volumes of nuclei wash buffer (10 mM Tris-HCl, pH 7.5, 10 mM NaCl, and 3 mM MgCl2) and then collected by centrifugation for 4 min at 600×g. […] Nuclei were extracted for 45 min at 4° C. with constant mixing. The suspension was then centrifuged for 30 min at 150,000×g. Aliquots of the supernatant were frozen on dry ice and stored at -80° C. The protein concentration as measured by the Bradford assay, with y-globulin as a standard ranged from 4 to 10 mg/ml. DTT (5 mM), phenylmethanesulfonyl fluoride (0.5 mM), leupeptin (20 μg/ml), β-glycerophosphate (800 μM), sodium vanadate (1 mM), and sodium molybdate (50 μM) were included in all buffers. Electrophoretic Mobility Shift Assay-EMSA assays were done as described previously (54). AP-1 DNA binding activity was measured by EMSA with a double-stranded end-labeled oligonucleotide [NT] containing a high affinity AP-1 binding site. […] DNA binding activity was quantitated by PhosphorImager analysis with ImageQuant software (Molecular Dynamics)."}, "NF-κB": {"tested_on": "NF-κB", "test": "NF-κB luciferase reporter (p3×κBluc), transient transfection of K562 cells", "type": "cell-based, human", "source_text": "(§1) Plasmids—The pBabe-NIC-1 (pNIC-1) expression vector encoding constitutively active Notch-1 (NIC-1) was described previously (36,37,51). This vector was derived from the pBabe-puro retroviral vector and includes a cDNA sequence encoding amino acids 1759-2556 of human Notch-1 with a Myc tag fused to its carboxyl terminus. Human NIC-1 deletion mutants were generated by PCR using a full-length human Notch-1 expression vector as the template. The Notch-dependent reporter plasmid containing four CBF1 binding sites and an simian virus 40 promoter fused to luciferase (p4×CBF1luc) was described previously (52). The AP-1 reporter plasmid (p1×AP1luc) containing a collagenase promoter fragment (−73/+67) with a single AP-1 binding site in the luciferase reporter vector pGL2-basic (Promega) was described previously (53). The NF-κB reporter plasmid (p3×κBluc) containing three NF-κB binding sites and a minimal promoter fused to luciferase was a kind gift of Dr. Shigeki Miyamoto (University of Wisconsin Medical School). […]\n(§2) For each transfection, cells were incubated for 26 h after transfection and then treated with TPA (final concentration: 5 nM) or the vehicle (DMSO). […] Luciferase activity was normalized by the protein content of the lysates, determined by Bradford assay using γ-globulin as a standard."}, "MMP1": {"tested_on": "MMP1", "test": "Northern blotting of MMP1 transcripts in K562-Babe and K562-NIC-1 cells", "type": "cell-based, human", "settings": "K562-Babe cells, 5 nM TPA 12 h", "method": "(§3) Stable Transfection—K562 cells were stably transfected by electroporation with a Bio-Rad Gene pulser electroporator. Cells (5×10^6) were washed with ice-cold PBS, resuspended in 0.5 ml of ice-cold PBS, mixed with 5 μg linearized plasmid DNA, and subjected to electroporation (960 microfarad; 220 V) in a 0.4 cm-wide electroporation cuvette (BTX). pBabe and pNIC-1 were linearized with NotI. Cells were then added to 20 ml of complete IMEM, grown for 48 h, and diluted in complete IMEM containing 1.5 μg/ml puromycin (pools of K562-Babe and K562-NIC-1 cells). Stably transfected cells were analyzed for erythroid differentiation as soon as the pools were generated by benzidine staining to reduce the probability of phenotypic changes that may result from prolonged growth.\n(§4) Northern Blotting—Total RNA from K562-Babe and K562-NIC-1 cells was extracted with Triazol (Life Technologies, Inc.). Ten μg of RNA per sample was electrophoresed on a 1% agarose, 6.6% formaldehyde gel and then transferred overnight to a Magnacharge nylon membrane (Osmonics). RNA was cross-linked to the membrane by UV irradiation. Membranes were prehybridized for 30 min at 60° C. in ExpressHyb hybridization solution (Clontech). […] Radioactivity was quantitated by PhosphorImager analysis with ImageQuant software (Molecular Dynamics)."}, "IL-8": {"tested_on": "IL-8", "test": "Northern blotting of IL-8 transcripts in K562-Babe and K562-NIC-1 cells", "type": "cell-based, human", "settings": "K562-Babe cells, 5 nM TPA 12 h", "method": "as §3, §4"}, "human Aγ globin promoter": {"tested_on": "human Aγ globin promoter", "test": "pGL3γLuc reporter, transient transfection of K562 cells", "type": "cell-based", "settings": "K562, TPA treatment", "method": "(§5) Transient Transfections—K562 cells (5×10^5) were collected by centrifugation at 240×g for 8 min at 4° C. and resuspended in 4 ml of complete IMEM. Plasmid DNAs (1 μg of reporter and 2 μg of effector) were added to 150 μl of IMEM, incubated with Superfect (4 μl/1 μg DNA; Qiagen) for 10 min at room temperature and then added to cells.\n(§6) For each transfection, cells were incubated for 26 h after transfection and then treated with TPA (final concentration: 5 nM) or the vehicle (DMSO). After incubating for another 12 or 16 h, cells were harvested and assayed for luciferase activity. Luciferase activity was normalized by the protein content of the lysates, determined by Bradford assay using γ-globulin as a standard."}, "AP-1 [2]": {"tested_on": "AP-1", "test": "AP-1 luciferase reporter, transient transfection of K562 cells", "type": "cell-based, human", "settings": "K562, p1×AP1luc, no NIC-1", "source_text": "Plasmids—The pBabe-NIC-1 (pNIC-1) expression vector encoding constitutively active Notch-1 (NIC-1) was described previously (36,37,51). This vector was derived from the pBabe-puro retroviral vector and includes a cDNA sequence encoding amino acids 1759-2556 of human Notch-1 with a Myc tag fused to its carboxyl terminus. Human NIC-1 deletion mutants were generated by PCR using a full-length human Notch-1 expression vector as the template. The Notch-dependent reporter plasmid containing four CBF1 binding sites and an simian virus 40 promoter fused to luciferase (p4×CBF1luc) was described previously (52). The AP-1 reporter plasmid (p1×AP1luc) containing a collagenase promoter fragment (−73/+67) with a single AP-1 binding site in the luciferase reporter vector pGL2-basic (Promega) was described previously (53). The NF-κB reporter plasmid (p3×κBluc) containing three NF-κB binding sites and a minimal promoter fused to luciferase was a kind gift of Dr. Shigeki Miyamoto (University of Wisconsin Medical School). The pBabe-H-Ras(12V) expression vector encoding constitutively active H-Ras was a kind gift of Dr. Charming Der (University of North Carolina-Chapel Hill). This vector was derived from the pBabe-puro retroviral vector and includes a cDNA encoding H-Ras with a Gly to Val mutation at amino acid 12.\nas §5, §6"}, "AP-1 [3]": {"tested_on": "AP-1", "test": "AP-1 luciferase reporter, transient transfection of HeLa cells", "type": "cell-based, human", "source_text": "as §1, §2"}, "CMV enhancer": {"tested_on": "CMV enhancer", "test": "pCMVβgal β-galactosidase reporter, transient transfection of K562 cells", "type": "cell-based, human", "settings": "K562, TPA treatment", "method": "as §5, §2"}}}
{"smiles": "CCCCCCCCCCCCCC(=O)O[C@@H]1[C@@H](C)[C@@]2(O)[C@@H](C=C(CO)C[C@]3(O)C(=O)C(C)=C[C@@H]23)[C@@H]2C(C)(C)[C@]12OC(C)=O", "note": "[TPA, reference compound]", "values": [{"measurement": "induction of AP-1 DNA binding activity", "setting": "AP-1 [1]", "value": "strongly induced"}, {"measurement": "activation of NF-κB reporter gene by the activator", "setting": "NF-κB", "value": "strongly activated"}, {"measurement": "induction of MMP1 transcript levels", "setting": "MMP1", "value": "strongly induced"}, {"measurement": "induction of IL-8 transcript levels", "setting": "IL-8", "value": "strongly induced"}, {"measurement": "increase of pGL3γLuc activity", "setting": "human Aγ globin promoter", "value": "~3", "unit": "fold"}, {"measurement": "induction of AP-1 reporter activity by the activator", "setting": "AP-1 [2]", "value": "strongly induced"}, {"measurement": "induction of AP-1 reporter activity by the activator", "setting": "AP-1 [3]", "value": "strongly induced"}, {"measurement": "increase of pCMVβgal activity", "setting": "CMV enhancer", "value": "strongly increased"}]}
